In patent publication US6358885B1, “Substituted phenylheterocyclic herbicides” (Mississippi State University, priority 1992, dated 2002):

Assays:
Test in all cases: Test G preemergence/postemergence greenhouse plant response rating 0 to 100
smooth crabgrass = format: in vivo, Digitaria ischaemum; settings: 0 to 100 scale
Source text: (§1) Seeds, rhizomes, or plant parts of alfalfa (Medicago ativa), annual bluegrass (Poa annua), bermudagrass (Cynodon dactylon), broadleaf signalgrass (Brachiaria plantaginea), common purslane (Portulaca oleracea), common ragweed (Ambrosia elatior), […] (Paspalum dilatatum), goosegrass (Eleusine indica), guineagrass (Panicum maximum), […] exaltata), johnsongrass (Sorghum halepense), large crabgrass (Digitaria sanguinalis), peanut (Arachis hypoagaea), pitted morningglory (Ipomoea lacunosa), purple nutsedge (Cyperus rotundus), sandbur (Cenchrus echinatus), smooth crabgrass (Digitaria ischaemum) and yellow nutsedge (Cyperus esculentus) were planted into greenhouse pots containing greenhouse planting medium. Each pot contained only one plant species. The test compound was dissolved in a non-phytotoxic solvent and applied preemergence and/or postemergence to the plants. Preemergence applications were made within one day of planting the seeds or plant parts. Postemergence applications were applied when the plants were in the two to four leaf stage (three to twenty cm). Test chemicals were dissolved in a non-phytotoxic solvent and applied preemergence and postemergence to the plants. Untreated control plants and treated plants were placed in the greenhouse and visually evaluated for injury at 13 to 21 days after herbicide application. […] A dash (-) response indicates no test result.

alfalfa = format: in vivo, Medicago ativa; settings: 0 to 100 scale
Source text: as §1

common ragweed = format: in vivo, Ambrosia elatior; settings: 0 to 100 scale
Source text: as §1

itchgrass = format: in vivo, Rottboellia exaltata; settings: 0 to 100 scale
Source text: as §1

yellow nutsedge = format: in vivo, Cyperus esculentus; settings: Rate 125 g/ha, 0 to 100 scale
Source text: as §1

common purslane = format: in vivo, Portulaca oleracea; settings: 0 to 100 scale
Source text: as §1

large crabgrass = format: in vivo, Digitaria sanguinalis; settings: 0 to 100 scale
Source text: as §1

annual bluegrass = format: in vivo, Poa annua; settings: 0 to 100 scale
Source text: as §1

johnsongrass = format: in vivo, Sorghum halepense; settings: 0 to 100 scale
Source text: as §1

broadleaf signalgrass = format: in vivo, Brachiaria plantaginea; settings: 0 to 100 scale
Source text: as §1

goosegrass = format: in vivo, Eleusine indica; settings: 0 to 100 scale
Source text: as §1

peanut = format: in vivo, Arachis hypoagaea; settings: 0 to 100 scale
Source text: as §1

bermudagrass = format: in vivo, Cynodon dactylon; settings: 0 to 100 scale
Source text: as §1

sandbur = format: in vivo, Cenchrus echinatus; settings: 0 to 100 scale
Source text: as §1

guineagrass = format: in vivo, Panicum maximum; settings: 0 to 100 scale
Source text: as §1

purple nutsedge = format: in vivo, Cyperus rotundus; settings: Rate 125 g/ha, 0 to 100 scale
Source text: as §1

dallisgrass = format: in vivo, Paspalum dilatatum; settings: 0 to 100 scale
Source text: as §1

pitted morningglory = format: in vivo, Ipomoea lacunosa; settings: 0 to 100 scale
Source text: as §1

**Q.** How did the “Plant response rating, Smooth Crabgras” value (smooth crabgrass; POSTEMERGENCE, Rate 125 g/ha) turn out when COC(=O)C(C)Oc1cc(-c2nn3c(c2Cl)CCCC3)c(F)cc1Cl (centres unmarked) [Compound 28] was run?
**A.** 0

**Q.** And the “Plant response rating, Smooth Crabgras” value (smooth crabgrass; POSTEMERGENCE, Rate 250 g/ha)?
**A.** 0

**Q.** What about the “Plant response rating, Smooth Crabgras” value (smooth crabgrass; PREEMERGENCE, Rate 125 g/ha) of the same molecule?
**A.** 0

**Q.** And the “Plant response rating, Smooth Crabgras” value (smooth crabgrass; PREEMERGENCE, Rate 250 g/ha)?
**A.** 0

**Q.** And the “Plant response rating, Alfalfa Var.” value (alfalfa; POSTEMERGENCE, Rate 125 g/ha)?
**A.** 0

**Q.** And the “Plant response rating, Alfalfa Var.” value (alfalfa; POSTEMERGENCE, Rate 250 g/ha)?
**A.** 0

**Q.** And the “Plant response rating, Alfalfa Var.” value (alfalfa; PREEMERGENCE, Rate 125 g/ha)?
**A.** 0

**Q.** What about the “Plant response rating, Alfalfa Var.” value (alfalfa; PREEMERGENCE, Rate 250 g/ha) of the same molecule?
**A.** 0

**Q.** What about the “Plant response rating, Cmn Ragweed” value (common ragweed; POSTEMERGENCE, Rate 125 g/ha) of the same molecule?
**A.** 100

**Q.** What about the “Plant response rating, Cmn Ragweed” value (common ragweed; POSTEMERGENCE, Rate 250 g/ha) of the same molecule?
**A.** 60

**Q.** What about the “Plant response rating, Cmn Ragweed” value (common ragweed; PREEMERGENCE, Rate 125 g/ha) of the same molecule?
**A.** 0

**Q.** What about the “Plant response rating, Cmn Ragweed” value (common ragweed; PREEMERGENCE, Rate 250 g/ha) of the same molecule?
**A.** 0

**Q.** What about the “Plant response rating, Itchgrass” value (itchgrass; POSTEMERGENCE, Rate 125 g/ha) of the same molecule?
**A.** 0

**Q.** And the “Plant response rating, Itchgrass” value (itchgrass; POSTEMERGENCE, Rate 250 g/ha)?
**A.** 0

**Q.** What about the “Plant response rating, Itchgrass” value (itchgrass; PREEMERGENCE, Rate 125 g/ha) of the same molecule?
**A.** 0

**Q.** What about the “Plant response rating, Itchgrass” value (itchgrass; PREEMERGENCE, Rate 250 g/ha) of the same molecule?
**A.** 0

**Q.** What about the “Plant response rating, Yellow Nutsedge” value (yellow nutsedge; POSTEMERGENCE) of the same molecule?
**A.** 0

**Q.** What about the “Plant response rating, Yellow Nutsedge” value (yellow nutsedge; PREEMERGENCE) of the same molecule?
**A.** 0

**Q.** And the “Plant response rating, Cmn Purslane” value (common purslane; POSTEMERGENCE, Rate 125 g/ha)?
**A.** 30

**Q.** And the “Plant response rating, Cmn Purslane” value (common purslane; POSTEMERGENCE, Rate 250 g/ha)?
**A.** 60

**Q.** What about the “Plant response rating, Cmn Purslane” value (common purslane; PREEMERGENCE, Rate 125 g/ha) of the same molecule?
**A.** 0

**Q.** What about the “Plant response rating, Cmn Purslane” value (common purslane; PREEMERGENCE, Rate 250 g/ha) of the same molecule?
**A.** 0

**Q.** And the “Plant response rating, Large Crabgrass” value (large crabgrass; POSTEMERGENCE, Rate 125 g/ha)?
**A.** 0

**Q.** And the “Plant response rating, Large Crabgrass” value (large crabgrass; POSTEMERGENCE, Rate 250 g/ha)?
**A.** 0

**Q.** And the “Plant response rating, Large Crabgrass” value (large crabgrass; PREEMERGENCE, Rate 125 g/ha)?
**A.** 0

**Q.** And the “Plant response rating, Large Crabgrass” value (large crabgrass; PREEMERGENCE, Rate 250 g/ha)?
**A.** 0

**Q.** What about the “Plant response rating, Ann Bluegrass” value (annual bluegrass; POSTEMERGENCE, Rate 125 g/ha) of the same molecule?
**A.** 0

**Q.** And the “Plant response rating, Ann Bluegrass” value (annual bluegrass; POSTEMERGENCE, Rate 250 g/ha)?
**A.** 0

**Q.** And the “Plant response rating, Ann Bluegrass” value (annual bluegrass; PREEMERGENCE, Rate 125 g/ha)?
**A.** 0

**Q.** And the “Plant response rating, Ann Bluegrass” value (annual bluegrass; PREEMERGENCE, Rate 250 g/ha)?
**A.** 0

**Q.** What about the “Plant response rating, Johnsongrass” value (johnsongrass; POSTEMERGENCE, Rate 125 g/ha) of the same molecule?
**A.** 0

**Q.** What about the “Plant response rating, Johnsongrass” value (johnsongrass; POSTEMERGENCE, Rate 250 g/ha) of the same molecule?
**A.** 0

**Q.** What about the “Plant response rating, Johnsongrass” value (johnsongrass; PREEMERGENCE, Rate 125 g/ha) of the same molecule?
**A.** 0

**Q.** What about the “Plant response rating, Johnsongrass” value (johnsongrass; PREEMERGENCE, Rate 250 g/ha) of the same molecule?
**A.** 0

**Q.** And the “Plant response rating, Brdlf Sgnlgrass” value (broadleaf signalgrass; POSTEMERGENCE, Rate 125 g/ha)?
**A.** 0

**Q.** And the “Plant response rating, Brdlf Sgnlgrass” value (broadleaf signalgrass; POSTEMERGENCE, Rate 250 g/ha)?
**A.** 0

**Q.** What about the “Plant response rating, Brdlf Sgnlgrass” value (broadleaf signalgrass; PREEMERGENCE, Rate 125 g/ha) of the same molecule?
**A.** 0

**Q.** What about the “Plant response rating, Brdlf Sgnlgrass” value (broadleaf signalgrass; PREEMERGENCE, Rate 250 g/ha) of the same molecule?
**A.** 0

**Q.** What about the “Plant response rating, Goosegrass” value (goosegrass; POSTEMERGENCE, Rate 125 g/ha) of the same molecule?
**A.** 0

**Q.** And the “Plant response rating, Goosegrass” value (goosegrass; POSTEMERGENCE, Rate 250 g/ha)?
**A.** 0

**Q.** And the “Plant response rating, Goosegrass” value (goosegrass; PREEMERGENCE, Rate 125 g/ha)?
**A.** 0

**Q.** And the “Plant response rating, Goosegrass” value (goosegrass; PREEMERGENCE, Rate 250 g/ha)?
**A.** 0

**Q.** What about the “Plant response rating, Peanuts” value (peanut; POSTEMERGENCE, Rate 125 g/ha) of the same molecule?
**A.** 0

**Q.** And the “Plant response rating, Peanuts” value (peanut; POSTEMERGENCE, Rate 250 g/ha)?
**A.** 0

**Q.** And the “Plant response rating, Peanuts” value (peanut; PREEMERGENCE, Rate 125 g/ha)?
**A.** 0

**Q.** And the “Plant response rating, Peanuts” value (peanut; PREEMERGENCE, Rate 250 g/ha)?
**A.** 0

**Q.** And the “Plant response rating, Bermudagrass” value (bermudagrass; POSTEMERGENCE, Rate 125 g/ha)?
**A.** 0

**Q.** What about the “Plant response rating, Bermudagrass” value (bermudagrass; POSTEMERGENCE, Rate 250 g/ha) of the same molecule?
**A.** 0

**Q.** What about the “Plant response rating, Bermudagrass” value (bermudagrass; PREEMERGENCE, Rate 125 g/ha) of the same molecule?
**A.** 0

**Q.** And the “Plant response rating, Bermudagrass” value (bermudagrass; PREEMERGENCE, Rate 250 g/ha)?
**A.** 0

**Q.** And the “Plant response rating, S. Sandbur” value (sandbur; POSTEMERGENCE, Rate 125 g/ha)?
**A.** 0

**Q.** And the “Plant response rating, S. Sandbur” value (sandbur; POSTEMERGENCE, Rate 250 g/ha)?
**A.** 0

**Q.** What about the “Plant response rating, S. Sandbur” value (sandbur; PREEMERGENCE, Rate 125 g/ha) of the same molecule?
**A.** 0

**Q.** What about the “Plant response rating, S. Sandbur” value (sandbur; PREEMERGENCE, Rate 250 g/ha) of the same molecule?
**A.** 0

**Q.** And the “Plant response rating, Guineagrass” value (guineagrass; POSTEMERGENCE, Rate 125 g/ha)?
**A.** 0

**Q.** And the “Plant response rating, Guineagrass” value (guineagrass; POSTEMERGENCE, Rate 250 g/ha)?
**A.** 0

**Q.** And the “Plant response rating, Guineagrass” value (guineagrass; PREEMERGENCE, Rate 125 g/ha)?
**A.** 0

**Q.** And the “Plant response rating, Guineagrass” value (guineagrass; PREEMERGENCE, Rate 250 g/ha)?
**A.** 0

**Q.** And the “Plant response rating, Purple Nutsedge” value (purple nutsedge; POSTEMERGENCE)?
**A.** 0

**Q.** What about the “Plant response rating, Purple Nutsedge” value (purple nutsedge; PREEMERGENCE) of the same molecule?
**A.** 0

**Q.** What about the “Plant response rating, Dallisgrass” value (dallisgrass; POSTEMERGENCE, Rate 125 g/ha) of the same molecule?
**A.** 0

**Q.** What about the “Plant response rating, Dallisgrass” value (dallisgrass; POSTEMERGENCE, Rate 250 g/ha) of the same molecule?
**A.** 0

**Q.** What about the “Plant response rating, Dallisgrass” value (dallisgrass; PREEMERGENCE, Rate 125 g/ha) of the same molecule?
**A.** 0

**Q.** And the “Plant response rating, Dallisgrass” value (dallisgrass; PREEMERGENCE, Rate 250 g/ha)?
**A.** 0

**Q.** And the “Plant response rating, Pit Morninglory” value (pitted morningglory; POSTEMERGENCE, Rate 125 g/ha)?
**A.** 0

**Q.** What about the “Plant response rating, Pit Morninglory” value (pitted morningglory; POSTEMERGENCE, Rate 250 g/ha) of the same molecule?
**A.** 0

**Q.** What about the “Plant response rating, Pit Morninglory” value (pitted morningglory; PREEMERGENCE, Rate 125 g/ha) of the same molecule?
**A.** 0

**Q.** What about the “Plant response rating, Pit Morninglory” value (pitted morningglory; PREEMERGENCE, Rate 250 g/ha) of the same molecule?
**A.** 0
